Source: ChEMBL document CHEMBL1909046, “DrugMatrix in vitro pharmacology data”
Where a SMILES comes first, the peptide text is derived from it. Bridges are numbered along the chain shown (N, C = ends). [ ]: non-standard residue; d: D form. The star is where a group is joined. Threoninol(2S,3R) = C[C@@H](O)[C@H](CO)N*

What was measured:
[1] = biological target: T1, Alpha-1D adrenergic receptor (Homo sapiens, UniProt P25100); assay type: cell membranes, HEK293, Membrane; further: in other assays of this panel Not Active means under 50% inhibition at 10 µM
T1 sequence (P25100 whole entry): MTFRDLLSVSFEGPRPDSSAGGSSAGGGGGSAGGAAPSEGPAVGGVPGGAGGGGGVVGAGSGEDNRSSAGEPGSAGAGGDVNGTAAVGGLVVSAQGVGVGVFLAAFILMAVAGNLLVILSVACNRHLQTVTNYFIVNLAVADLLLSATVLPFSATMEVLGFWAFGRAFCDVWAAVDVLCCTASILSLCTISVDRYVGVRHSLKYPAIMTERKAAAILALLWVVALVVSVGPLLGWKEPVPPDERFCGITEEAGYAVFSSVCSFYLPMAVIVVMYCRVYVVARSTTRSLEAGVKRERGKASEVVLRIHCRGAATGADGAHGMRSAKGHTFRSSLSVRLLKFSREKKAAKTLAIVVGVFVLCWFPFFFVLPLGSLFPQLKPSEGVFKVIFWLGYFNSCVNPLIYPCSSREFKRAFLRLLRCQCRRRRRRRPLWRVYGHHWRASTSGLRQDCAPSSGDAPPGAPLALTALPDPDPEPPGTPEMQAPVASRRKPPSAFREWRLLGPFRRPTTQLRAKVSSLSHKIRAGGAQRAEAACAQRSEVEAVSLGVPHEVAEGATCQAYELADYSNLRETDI

[2] = biological target: T2, Alpha-2C adrenergic receptor (Homo sapiens, UniProt P18825); test: DRUGMATRIX: Adrenergic Alpha-2C radioligand binding (ligand: [3H] MK-912); assay type: cell membranes, Sf9, Membrane
T2 sequence (P18825 whole entry): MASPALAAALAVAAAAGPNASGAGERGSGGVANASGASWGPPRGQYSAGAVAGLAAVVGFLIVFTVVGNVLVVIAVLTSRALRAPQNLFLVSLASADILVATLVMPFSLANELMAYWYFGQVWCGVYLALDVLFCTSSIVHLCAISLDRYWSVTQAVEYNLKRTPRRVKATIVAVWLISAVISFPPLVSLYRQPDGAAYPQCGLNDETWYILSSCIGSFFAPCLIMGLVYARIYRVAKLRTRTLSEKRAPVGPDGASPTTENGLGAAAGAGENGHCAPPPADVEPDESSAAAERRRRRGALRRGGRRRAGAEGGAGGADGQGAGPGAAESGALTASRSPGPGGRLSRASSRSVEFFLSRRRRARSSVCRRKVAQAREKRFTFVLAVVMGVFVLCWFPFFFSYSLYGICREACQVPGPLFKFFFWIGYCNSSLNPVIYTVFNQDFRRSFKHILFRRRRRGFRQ

[3] = biological target: T3, 5-hydroxytryptamine receptor 2C (Homo sapiens, UniProt P28335); test: DRUGMATRIX: Serotonin (5-Hydroxytryptamine) 5-HT2C radioligand binding (ligand: [3H] Mesulergine); assay type: cell membranes, CHO-K1, Membrane; conditions: cho-k1; Not Active = under 50% inhibition at 10 µM
T3 sequence (P28335 whole entry): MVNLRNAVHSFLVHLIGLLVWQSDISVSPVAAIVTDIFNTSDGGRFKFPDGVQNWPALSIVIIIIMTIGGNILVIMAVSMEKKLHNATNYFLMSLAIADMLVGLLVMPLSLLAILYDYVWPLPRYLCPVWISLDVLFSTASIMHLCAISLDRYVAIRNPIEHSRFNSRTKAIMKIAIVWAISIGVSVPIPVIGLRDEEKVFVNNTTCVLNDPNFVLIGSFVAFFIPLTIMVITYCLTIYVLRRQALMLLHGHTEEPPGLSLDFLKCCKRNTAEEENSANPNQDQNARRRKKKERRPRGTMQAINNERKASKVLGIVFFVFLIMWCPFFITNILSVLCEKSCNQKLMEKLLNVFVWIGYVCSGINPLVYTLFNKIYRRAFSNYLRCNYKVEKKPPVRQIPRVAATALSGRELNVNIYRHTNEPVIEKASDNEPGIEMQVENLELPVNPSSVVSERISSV

[4] = biological target: T4, Muscarinic acetylcholine receptor M5 (Homo sapiens, UniProt P08912); assay type: cell membranes, CHO-K1, Membrane; further: in other assays of this panel Not Active means under 50% inhibition at 10 µM
T4 sequence (P08912 whole entry): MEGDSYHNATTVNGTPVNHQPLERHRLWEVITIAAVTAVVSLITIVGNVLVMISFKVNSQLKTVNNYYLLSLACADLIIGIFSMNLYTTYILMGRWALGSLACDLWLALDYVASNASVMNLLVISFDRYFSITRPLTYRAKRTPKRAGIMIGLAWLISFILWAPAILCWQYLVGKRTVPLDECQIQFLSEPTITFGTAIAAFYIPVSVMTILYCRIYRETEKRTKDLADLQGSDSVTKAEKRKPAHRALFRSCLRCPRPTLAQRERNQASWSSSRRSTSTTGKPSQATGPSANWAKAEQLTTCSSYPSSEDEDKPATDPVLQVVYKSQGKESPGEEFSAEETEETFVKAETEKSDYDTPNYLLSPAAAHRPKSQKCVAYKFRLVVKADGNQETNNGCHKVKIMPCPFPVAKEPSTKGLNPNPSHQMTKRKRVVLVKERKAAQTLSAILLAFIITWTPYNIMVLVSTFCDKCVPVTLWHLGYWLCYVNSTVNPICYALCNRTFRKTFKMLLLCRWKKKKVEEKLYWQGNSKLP

[5] = biological target: Estrogen receptor beta (Homo sapiens, UniProt Q92731); conditions: sf9; further: in other assays of this panel Not Active means under 50% inhibition at 10 µM
Chain of Estrogen receptor beta (Q92731 whole entry): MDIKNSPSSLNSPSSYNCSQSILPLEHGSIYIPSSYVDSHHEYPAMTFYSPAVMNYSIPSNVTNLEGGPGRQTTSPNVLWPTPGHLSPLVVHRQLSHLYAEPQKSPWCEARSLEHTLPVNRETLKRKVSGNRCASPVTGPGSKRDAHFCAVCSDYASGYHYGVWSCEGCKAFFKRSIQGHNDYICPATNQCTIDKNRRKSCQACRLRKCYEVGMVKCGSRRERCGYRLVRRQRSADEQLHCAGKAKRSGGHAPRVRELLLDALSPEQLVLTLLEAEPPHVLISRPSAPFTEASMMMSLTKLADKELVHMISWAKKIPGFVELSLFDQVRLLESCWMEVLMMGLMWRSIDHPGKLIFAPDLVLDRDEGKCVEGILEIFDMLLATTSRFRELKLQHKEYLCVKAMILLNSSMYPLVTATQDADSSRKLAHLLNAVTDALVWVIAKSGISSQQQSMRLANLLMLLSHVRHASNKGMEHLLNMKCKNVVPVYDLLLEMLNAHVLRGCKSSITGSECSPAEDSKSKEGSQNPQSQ

[6] = biological target: Cytochrome P450 3A4 (Homo sapiens, UniProt P08684); conditions: bti-tn-5b1-4; further: in other assays of this panel Not Active means under 50% inhibition at 10 µM
Chain of Cytochrome P450 3A4 (P08684 whole entry): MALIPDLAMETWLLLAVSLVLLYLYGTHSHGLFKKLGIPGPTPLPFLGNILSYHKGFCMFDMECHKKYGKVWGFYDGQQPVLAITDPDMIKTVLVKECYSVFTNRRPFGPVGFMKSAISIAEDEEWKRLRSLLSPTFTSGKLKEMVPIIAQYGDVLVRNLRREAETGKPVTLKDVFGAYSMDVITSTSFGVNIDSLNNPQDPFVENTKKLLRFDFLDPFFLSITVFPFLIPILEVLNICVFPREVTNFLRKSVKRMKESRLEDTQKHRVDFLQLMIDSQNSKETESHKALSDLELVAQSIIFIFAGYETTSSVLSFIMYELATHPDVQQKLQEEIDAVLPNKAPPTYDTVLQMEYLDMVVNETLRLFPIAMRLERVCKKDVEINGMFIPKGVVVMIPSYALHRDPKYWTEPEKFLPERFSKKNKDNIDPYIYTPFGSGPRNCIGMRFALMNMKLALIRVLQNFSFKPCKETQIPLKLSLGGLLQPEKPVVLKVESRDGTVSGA

Compound | IC50 ([1]; hek293) | Ki ([1]; hek293) | IC50 ([2]; sf9) | Ki ([2]; sf9) | IC50 [3] | Ki [3] | IC50 ([4]; cho-k1) | Ki ([4]; cho-k1) | IC50 [5] | Ki [5] | IC50 [6] | Ki [6] | IC50 ([2]; read-out: IC50) | Ki ([2]; read-out: Ki) | IC50 ([1]; read-out: IC50) | Ki ([1]; read-out: Ki) | IC50 ([4]; read-out: IC50) | Ki ([4]; read-out: Ki)
CADMIUM DICHLORIDE | Not Active | Not Active | Not Active | Not Active | Not Active | Not Active | Not Active | Not Active | Not Active | Not Active | Not Active | Not Active | – | – | – | – | – | –
CCCCOc1ccc(OCCCN2CCOCC2)cc1 [PRAMOXINE] | Not Active | – | Not Active | – | Not Active | – | Not Active | – | Not Active | – | Not Active | Not Active | – | – | – | – | – | –
CC(=O)Nc1cccc(O)c1 [METACETAMOL] | Not Active | – | Not Active | – | Not Active | – | Not Active | – | Not Active | – | Not Active | Not Active | – | – | – | – | – | –
NC(=O)c1cnccn1 [PYRAZINAMIDE] | Not Active | – | Not Active | – | Not Active | – | Not Active | – | Not Active | – | Not Active | Not Active | – | – | – | – | – | –
CC[C@@H](CO)NCCN[C@@H](CC)CO [ETHAMBUTOL] | Not Active | – | Not Active | – | Not Active | – | Not Active | – | Not Active | – | Not Active | Not Active | – | – | – | – | – | –
CC(C)(Oc1ccc(C2CCCc3ccccc32)cc1)C(=O)O (stereo unspecified) [NAFENOPIN] | Not Active | – | Not Active | – | Not Active | – | Not Active | – | Not Active | – | Not Active | Not Active | – | – | – | – | – | –
S=C=Nc1cccc2ccccc12 [1-NAPHTHYLISOTHIOCYANATE] | Not Active | – | – | – | Not Active | – | Not Active | – | Not Active | – | Not Active | Not Active | 54500 nM | 7920 nM | – | – | – | –
Cc1ccccc1C(=O)N1CCC(Cc2ccccc2)CC1 | Not Active | – | Not Active | – | Not Active | – | Not Active | – | Not Active | – | Not Active | Not Active | – | – | – | – | – | –
C[C@@H](O)[C@H](CO)NC(=O)[C@@H]1CSSC[C@H](NC(=O)[C@H](N)Cc2ccccc2)C(=O)N[C@@H](Cc2ccccc2)C(=O)N[C@H](Cc2c[nH]c3ccccc23)C(=O)N[C@@H](CCCCN)C(=O)N[C@@H]([C@@H](C)O)C(=O)N1 (H-[dF]CF[dW]KTC-{Threoninol(2S,3R)}; disulfide 2-7) | Not Active | – | Not Active | – | Not Active | – | Not Active | – | Not Active | – | Not Active | Not Active | – | – | – | – | – | –
Cc1nccn1CC1CCc2c(c3ccccc3n2C)C1=O (stereo unspecified) [ONDANSETRON] | Not Active | – | Not Active | – | Not Active | – | Not Active | – | Not Active | – | Not Active | Not Active | – | – | – | – | – | –
COc1cc2c(c3oc(=O)c4c(c13)CCC4=O)[C@@H]1C=CO[C@@H]1O2 [AFLATOXIN] | Not Active | Not Active | Not Active | Not Active | Not Active | Not Active | Not Active | Not Active | Not Active | Not Active | Not Active | Not Active | – | – | – | – | – | –
CC1(C)O[C@@H]2C[C@H]3[C@@H]4C[C@H](F)C5=CC(=O)CC[C@]5(C)[C@H]4[C@@H](O)C[C@]3(C)[C@]2(C(=O)CO)O1 [FLURANDRENOLIDE] | Not Active | – | Not Active | – | Not Active | – | Not Active | – | Not Active | – | Not Active | Not Active | – | – | – | – | – | –
CC(C(=O)O)c1cccc(C(=O)c2ccccc2)c1 (stereo unspecified) [KETOPROFEN] | Not Active | – | Not Active | – | Not Active | – | Not Active | – | Not Active | – | Not Active | Not Active | – | – | – | – | – | –
O=c1ccc2ccccc2o1 [COUMARIN] | Not Active | – | Not Active | – | Not Active | – | Not Active | – | Not Active | – | Not Active | Not Active | – | – | – | – | – | –
Cc1cc(=O)n(-c2ccccc2)n1C [ANTIPYRINE] | Not Active | – | Not Active | – | Not Active | – | Not Active | – | Not Active | – | Not Active | Not Active | – | – | – | – | – | –
COc1cccc2c1C(=O)c1c(O)c3c(c(O)c1C2=O)C[C@@](O)(C(=O)CO)C[C@@H]3O[C@H]1C[C@H](N)[C@@H](O)[C@H](C)O1 [EPIRUBICIN] | Not Active | – | Not Active | – | Not Active | – | Not Active | – | Not Active | – | Not Active | Not Active | – | – | – | – | – | –
C[C@](O)(CS(=O)(=O)c1ccc(F)cc1)C(=O)Nc1ccc(C#N)c(C(F)(F)F)c1 [(R)-BICALUTAMIDE] | Not Active | – | Not Active | – | Not Active | – | Not Active | – | Not Active | – | Not Active | Not Active | – | – | – | – | – | –
COc1ccc2c(c1)[C@]13CCCC[C@@H]1[C@H](C2)N(C)CC3 [DEXTROMETHORPHAN] | Not Active | – | Not Active | – | Not Active | – | Not Active | – | Not Active | – | Not Active | Not Active | – | – | – | – | – | –
COP(=O)(OC)OC=C(Cl)Cl [DICHLORVOS] | Not Active | – | Not Active | – | Not Active | – | Not Active | – | Not Active | – | Not Active | Not Active | – | – | – | – | – | –
CCN[C@@H]1C[C@H](N)[C@@H](O[C@H]2OC(CN)=CC[C@H]2N)[C@H](O)[C@H]1O[C@H]1OC[C@](C)(O)[C@H](NC)[C@H]1O [NETILMICIN] | Not Active | – | Not Active | – | Not Active | – | Not Active | – | Not Active | – | Not Active | Not Active | – | – | – | – | – | –
CN(C)/N=N/c1[nH]cnc1C(N)=O [DACARBAZINE] | Not Active | – | Not Active | – | Not Active | – | Not Active | – | Not Active | – | Not Active | Not Active | – | – | – | – | – | –
CC1=C(C(=O)O)N2C(=O)[C@@H](NC(=O)[C@H](N)c3ccccc3)[C@H]2SC1 [CEPHALEXIN ANHYDROUS] | Not Active | – | Not Active | – | Not Active | – | Not Active | – | Not Active | – | – | – | – | – | – | – | – | –
CN(C)c1ccc(C(=C2C=CC(=[N+](C)C)C=C2)c2ccc(N(C)C)cc2)cc1.[Cl-] [GENTIAN VIOLET] | – | – | – | – | Not Active | – | – | – | Not Active | – | – | – | 1880 nM | 274 nM | 1980 nM | 973 nM | 535 nM | 384 nM
CCOC(=O)C(C)(C)Oc1ccc(Cl)cc1 [CLOFIBRATE] | Not Active | – | Not Active | – | Not Active | – | Not Active | – | Not Active | – | – | – | – | – | – | – | – | –
